Results on one molecule are retold here after patent US20250017211A1, “SOLID P[…] CONTROL COMPOSITIONS AND METHODS” (Control Solutions, Inc., priority 2021, published 2025).

Structures are written as SMILES.

For assay [1], the system named is all white grubs (scarab larvae). Kind of assay: Preventive control of scarab larvae in Kentucky bluegrass, first study, all white grubs. In kind it is in vivo, scarab beetle larvae. Particulars: study of Example 5. The source says:
The primary objectives of this study were to evaluate the influence of application rate and timing on the efficacy of novaluran applied preventively against scarab larvae in cool-season turfgrass. The experiment was located on a stand of turfgrass consisting primarily of Kentucky bluegrass maintained at 7.6 cm. Plots measuring 5×5 ft were arranged in a randomized complete-block design with 2 ft alleys between plots. […] Each treatment was replicated 4 times. Plots were irrigated Immediately after each set of applications (0.1″).
Japanese beetle larval infestations were created by driving two, 20.3 cm diameter PVC cylinders into each plot along its mid-line and caging one group of 40 Japanese beetle adults (50:50 sex ratio) within each cylinder during early July. Scarab larval populations were assessed Oct. 12-16, 2019 using a sod cutter to remove a strip of sod lying directly beneath the caging area of each plot and examining the soil to a depth of 3 inches. All scarab larvae recovered from the plots were identified to genus level, counted and recorded. Variation in scarab larval populations was examined using main effects ANOVA and treatment means were compared using Fisher's LSD test (α=0.05). Treatments and application dates were as described in Table 3.

Assay [2] concerns white grubs (Japanese beetles and masked chafers). Kind of assay: Preventive control of white grubs in Kentucky bluegrass, second study. As to conditions: instant (second) study. In kind it is in vivo, scarab beetle larvae. How it is done:
As with the study of Example 5 above, the purpose of this study was to evaluate rates and timings of novaluron and a wetting agent (Syringe) for controlling white grubs in turfgrass. A trial was conducted on Kentucky bluegrass maintained at a height of 7.6 cm. A randomized complete block design with 4 replications of 5′×5′ plots were used. Treatments were applied and all plots were watered in (0.1″) immediately after application. Treatments and application dates were as described in Table 4. Caged Japanese beetle adults (20 male: 20 female) were placed within each plot. Plots were assessed using a sod cutter set to 3″ depth. All scarab beetle larvae recovered were identified to genus level.

In the case of `O=C(NC(=O)c1c(F)cccc1F)Nc1ccc(OC(F)(F)C(F)OC(F)(F)F)c(Cl)c1` (stereo not shown) [Novaluron, novaluron], the Control was 46-72% in assay [1] (0.675 lb ai/A), 45-56% in assay [1] (0.9 lb ai/A), 84-90% in assay [2] (0.675 lb ai/A) and 84-90% in assay [2] (0.9 lb ai/A).
